Source: PMC2706954, “Dissecting Structural and Functional Diversity of the Lantibiotic Mersacidin” (Chemistry & Biology, 2009)
Values after ≈ are worked out from the molar mass of the structure shown. Values joined by “and” are separate entries in the source; they are usually repeats but may differ in a detail not shown here. Equal values may be shown once. Read-outs that look alike come from different tables or passages of the source. Where no end group is shown, it is not given here.

Legend:
S. aureus R33 MRSA = type: cell-based, Staphylococcus aureus
Protocol: (§1) Antibacterial activity of fermentation samples or purified samples was determined by Mueller-Hinton Agar diffusion bioassays using M. luteus ATCC 4698 as the indicator strain. Susceptibility testing (minimum inhibitory concentration [MIC]) for all aerobic organisms, with the exception of S. pneumoniae, was performed following the recommendations of CLSI. Susceptibility testing of S. pneumoniae was performed by two-fold serial dilutions in brain-heart-infusion broth supplemented with 50 μg/ml Ca^2+. Vancomycin was used as a reference antibiotic, and plates were incubated aerobically, with shaking, for 18–20 hr at 37°C with the MIC defined as the lowest concentration of drug that prevented visible growth.

S. aureus SH1000 = type: cell-based, Staphylococcus aureus
Protocol: as §1

S. pneumoniae BAA-255 = type: cell-based, Streptococcus pneumoniae
Protocol: as §1

M. luteus ATCC4698 = type: cell-based, Micrococcus luteus
Protocol: as §1

E. faecalis ATCC29212 = type: cell-based
Protocol: as §1

E. faecium 7131121 VRE = type: cell-based
Protocol: as §1

E. faecium ATCC19579 = type: cell-based
Protocol: as §1

S. epidermidis NCTC11047 = type: cell-based
Protocol: as §1

[1] = test system: panel of microorganisms (target strains); assay: MIC determination against the panel of microorganisms (target strains); type: cell-based; conditions: comparison with mersacidin or with parent single mutants
Protocol: Partially purified fermentation samples from clones expressing highly produced variants were assayed for antimicrobial activity against M. luteus. Samples were fractionated to eliminate interfering bioactive compounds produced by the host strain and were bioassayed (see Supplemental Data available online). Selected mersacidin variants with antibacterial activity against M. luteus were produced at larger scale for quantitative studies (2 l). The mersacidin variants were purified and assayed against a panel of microorganisms to determine the MIC values.
as §1

[2] = CLSI recommendations, incubated aerobically with shaking 18–20 hr at 37°C, MIC = lowest concentration preventing visible growth, purified variants

Row | Molecule | MIC S. aureus R33 MRSA (S. aureus R33 MRSA; R33) | MIC S. aureus SH1000 (S. aureus SH1000; SH1000) | MIC S. pneumoniae BAA-255 (S. pneumoniae BAA-255; BAA-255) | MIC M. luteus ATCC4698 (M. luteus ATCC4698; ATCC4698) | MIC E. faecalis ATCC29212 (E. faecalis ATCC29212; ATCC29212) | MIC E. faecium 7131121 VRE (E. faecium 7131121 VRE; 7131121 VRE) | MIC E. faecium ATCC19579 (E. faecium ATCC19579; ATCC19579) | MIC S. epidermidis NCTC11047 (S. epidermidis NCTC11047; NCTC11047) | MIC S. aureus R33 MRSA (S. aureus R33 MRSA; [2]) | MIC S. aureus SH1000 (S. aureus SH1000; [2]) | MIC S. pneumoniae BAA-255 (S. pneumoniae BAA-255; two-fold serial dilutions in brain-heart-infusion broth with 50 μg/ml Ca2+, 18–20 hr at 37°C, MIC = lowest concentration preventing visible growth) | MIC M. luteus ATCC4698 (M. luteus ATCC4698; [2]) | MIC E. faecalis ATCC29212 (E. faecalis ATCC29212; [2]) | MIC E. faecium 7131121 VRE (E. faecium 7131121 VRE; vancomycin-resistant clinical isolate, CLSI recommendations, 18–20 hr at 37°C, MIC = lowest concentration preventing visible growth) | MIC E. faecium ATCC19579 (E. faecium ATCC19579; [2]) | MIC S. epidermidis NCTC11047 (S. epidermidis NCTC11047; [2]) | antibacterial activity, in words, compared with parent [1]
1 | C=C1NC(=O)C2NC(=O)[C@H](CC(C)C)NC(=O)C(NC(=O)[C@@H]3CSC(C)C(NC(=O)[C@H](Cc4ccccc4)NC(=O)C4NC(=O)[C@@H](N)CSC4C)C(=O)N[C@@H](CC(C)C)C(=O)N4CCC[C@H]4C(=O)NCC(=O)N[C@@H](Cc4c[nH]cn4)C(=O)NCC(=O)NCC(=O)N[C@@H](C(C)C)C(=O)N3)C(C)SC[C@H](NC(=O)[C@H](CCC(=O)O)NC1=O)C(=O)N[C@@H]([C@@H](C)CC)C(=O)NC=CSC2C (stereo partly shown) [G8H] | 64 µg/mL (≈ 33.6 µM) | 64, >64 μg/ml | 16 µg/mL (≈ 8.39 µM) | 8 µg/mL (≈ 4.2 µM) | >64 µg/mL | >64 µg/mL | >64 µg/mL | 64 µg/mL (≈ 33.6 µM) | – | – | – | – | – | – | – | – | –
2 | C=C1NC(=O)C2NC(=O)[C@H](CC(C)C)NC(=O)C(NC(=O)[C@@H]3CSC(C)C(NC(=O)[C@H](Cc4ccccc4)NC(=O)C4NC(=O)[C@@H](N)CSC4C)C(=O)N[C@@H](CC(C)C)C(=O)N4CCC[C@H]4C(=O)NCC(=O)N[C@@H](CC(N)=O)C(=O)NCC(=O)NCC(=O)N[C@@H](C(C)C)C(=O)N3)C(C)SC[C@H](NC(=O)[C@H](CCC(=O)O)NC1=O)C(=O)N[C@@H]([C@@H](C)CC)C(=O)NC=CSC2C (stereo partly shown) [G8N] | – | – | – | – | – | – | – | – | 16 µg/mL and 32 µg/mL | >64 µg/mL | >64 µg/mL | 8 µg/mL (≈ 4.25 µM) | >64 µg/mL | >64 µg/mL | >64 µg/mL | 64 µg/mL (≈ 34 µM) | –
3 | C=C1NC(=O)C2NC(=O)[C@H](CC(C)C)NC(=O)C(NC(=O)[C@@H]3CSC(C)C(NC(=O)[C@H](Cc4ccccc4)NC(=O)C4NC(=O)[C@@H](N)CSC4C)C(=O)N[C@@H](CC(C)C)C(=O)N4CCC[C@H]4C(=O)NCC(=O)NCC(=O)N[C@@H](C)C(=O)NCC(=O)N[C@@H](C(C)C)C(=O)N3)C(C)SC[C@H](NC(=O)[C@H](CCC(=O)O)NC1=O)C(=O)N[C@@H]([C@@H](C)CC)C(=O)NC=CSC2C (stereo partly shown) [G9A] | 8 µg/mL (≈ 4.35 µM) | 32 µg/mL (≈ 17.4 µM) | 8 µg/mL (≈ 4.35 µM) | < 4 µg/mL | >64 µg/mL | >64 µg/mL | 64 µg/mL (≈ 34.8 µM) | 32 µg/mL (≈ 17.4 µM) | – | – | – | – | – | – | – | – | –
4 | C=C1NC(=O)C2NC(=O)[C@H](CC(C)C)NC(=O)C(NC(=O)[C@@H]3CSC(C)C(NC(=O)[C@H](Cc4ccccc4)NC(=O)C4NC(=O)[C@@H](N)CSC4C)C(=O)N[C@@H](CC(C)C)C(=O)N4CCC[C@H]4C(=O)NCC(=O)NCC(=O)N[C@@H](CO)C(=O)NCC(=O)N[C@@H](C(C)C)C(=O)N3)C(C)SC[C@H](NC(=O)[C@H](CCC(=O)O)NC1=O)C(=O)N[C@@H]([C@@H](C)CC)C(=O)NC=CSC2C (stereo partly shown) [G9S] | 64, >64 μg/ml | >64 µg/mL | >64 µg/mL | 64 µg/mL (≈ 34.5 µM) | >64 µg/mL | >64 µg/mL | >64 µg/mL | >64 µg/mL | – | – | – | – | – | – | – | – | –
5 | C=C1NC(=O)C2NC(=O)[C@H](CC(C)C)NC(=O)C(NC(=O)[C@@H]3CSC(C)C(NC(=O)[C@H](Cc4ccccc4)NC(=O)C4NC(=O)[C@@H](N)CSC4C)C(=O)N[C@@H](CC(C)C)C(=O)N4CCC[C@H]4C(=O)NCC(=O)NCC(=O)NCC(=O)N[C@@H](C)C(=O)N[C@@H](C(C)C)C(=O)N3)C(C)SC[C@H](NC(=O)[C@H](CCC(=O)O)NC1=O)C(=O)N[C@@H]([C@@H](C)CC)C(=O)NC=CSC2C (stereo partly shown) [G10A] | 64, >64 μg/ml | >64 µg/mL | 8 µg/mL (≈ 4.35 µM) | 8 µg/mL (≈ 4.35 µM) | >64 µg/mL | >64 µg/mL | >64 µg/mL | 64, >64 μg/ml | – | – | – | – | – | – | – | – | –
6 | C=C1NC(=O)C2NC(=O)[C@H](CC(C)C)NC(=O)C(NC(=O)[C@@H]3CSC(C)C(NC(=O)[C@H](Cc4ccccc4)NC(=O)C4NC(=O)[C@@H](N)CSC4C)C(=O)N[C@@H](CC(C)C)C(=O)N4CCC[C@H]4C(=O)NCC(=O)NCC(=O)NCC(=O)N[C@@H](CC(N)=O)C(=O)N[C@@H](C(C)C)C(=O)N3)C(C)SC[C@H](NC(=O)[C@H](CCC(=O)O)NC1=O)C(=O)N[C@@H]([C@@H](C)CC)C(=O)NC=CSC2C (stereo partly shown) [G10N] | 64, >64 μg/ml | >64 µg/mL | >64 µg/mL | 8 µg/mL (≈ 4.25 µM) | >64 µg/mL | >64 µg/mL | >64 µg/mL | >64 µg/mL | – | – | – | – | – | – | – | – | –
7 | C=C1NC(=O)C2NC(=O)[C@H](CC(C)C)NC(=O)C(NC(=O)[C@@H]3CSC(C)C(NC(=O)[C@H](Cc4ccccc4)NC(=O)C4NC(=O)[C@@H](N)CSC4C)C(=O)N[C@@H](CC(C)C)C(=O)N4CCC[C@H]4C(=O)NCC(=O)NCC(=O)NCC(=O)N[C@@H](C(C)C)C(=O)N[C@@H](C(C)C)C(=O)N3)C(C)SC[C@H](NC(=O)[C@H](CCC(=O)O)NC1=O)C(=O)N[C@@H]([C@@H](C)CC)C(=O)NC=CSC2C (stereo partly shown) [G10V] | 64, >64 μg/ml | >64 µg/mL | 16 µg/mL (≈ 8.56 µM) | < 4 µg/mL | >64 µg/mL | >64 µg/mL | >64 µg/mL | 64 µg/mL (≈ 34.3 µM) | – | – | – | – | – | – | – | – | –
8 | CC[C@H](C)[C@@H]1NC(=O)[C@@H]2CSC(C)C(NC(=O)[C@@H]3CSC(C)C(NC(=O)[C@H](Cc4ccccc4)NC(=O)C4NC(=O)[C@@H](N)CSC4C)C(=O)N[C@@H](CC(C)C)C(=O)N4CCC[C@H]4C(=O)NCC(=O)NCC(=O)NCC(=O)NCC(=O)N[C@@H](C(C)C)C(=O)N3)C(=O)N[C@@H](CC(C)C)C(=O)NC(C(=O)N[C@@H](C)C(=O)N[C@@H](CCC(=O)O)C(=O)N2)C(C)SC=CNC1=O (stereo partly shown) [S16A] | 16 µg/mL (≈ 8.75 µM) | 64 µg/mL (≈ 35 µM) | 4 µg/mL (≈ 2.19 µM) | 2 µg/mL (≈ 1.09 µM) | 64 µg/mL (≈ 35 µM) | >64 µg/mL | 32 µg/mL (≈ 17.5 µM) | 32 µg/mL (≈ 17.5 µM) | – | – | – | – | – | – | – | – | –
9 | CC=C1NC(=O)C2NC(=O)[C@H](CC(C)C)NC(=O)C(NC(=O)[C@@H]3CSC(C)C(NC(=O)[C@H](Cc4ccccc4)NC(=O)C4NC(=O)[C@@H](N)CSC4C)C(=O)N[C@@H](CC(C)C)C(=O)N4CCC[C@H]4C(=O)NCC(=O)NCC(=O)NCC(=O)NCC(=O)N[C@@H](C(C)C)C(=O)N3)C(C)SC[C@H](NC(=O)[C@H](CCC(=O)O)NC1=O)C(=O)N[C@@H]([C@@H](C)CC)C(=O)NC=CSC2C (stereo partly shown) [S16Db] | 8 µg/mL (≈ 4.35 µM) | 32 µg/mL (≈ 17.4 µM) | 32 µg/mL (≈ 17.4 µM) | 1 µg/mL (≈ 0.543 µM) | 32 µg/mL (≈ 17.4 µM) | 64 µg/mL (≈ 34.8 µM) | 32 µg/mL (≈ 17.4 µM) | 16 µg/mL (≈ 8.69 µM) | – | – | – | – | – | – | – | – | –
10 | C=C1NC(=O)C2NC(=O)[C@H](CC(C)C)NC(=O)C(NC(=O)[C@@H]3CSC(C)C(NC(=O)[C@H](Cc4ccccc4)NC(=O)C4NC(=O)[C@@H](N)CSC4C)C(=O)N[C@@H](CC(C)C)C(=O)N4CCC[C@H]4C(=O)NCC(=O)NCC(=O)NCC(=O)NCC(=O)N[C@@H]([C@@H](C)CC)C(=O)N3)C(C)SC[C@H](NC(=O)[C@H](CCC(=O)O)NC1=O)C(=O)N[C@@H]([C@@H](C)CC)C(=O)NC=CSC2C (stereo partly shown) [V11I] | 16 µg/mL (≈ 8.69 µM) | 32 µg/mL (≈ 17.4 µM) | 16 µg/mL (≈ 8.69 µM) | 0.5 µg/mL (≈ 0.272 µM) | 16 µg/mL (≈ 8.69 µM) | 16 µg/mL (≈ 8.69 µM) | 16 µg/mL (≈ 8.69 µM) | 16 µg/mL (≈ 8.69 µM) | – | – | – | – | – | – | – | – | –
11 | F3W-L14I (CTWTLPGGGGVCTITSECIC; also: mersacidin methyllanthionine thioether bridges, not placed, C-terminal decarboxylated Cys (2-thioethenamine); UniProt P43683 49-68, looked up, variant F3W L14I) | – | – | – | – | – | – | – | – | – | – | – | – | – | – | – | – | comparable to those of the parent mutants
12 | V11I-L14I (CTFTLPGGGGICTITSECIC; also: mersacidin methyllanthionine thioether bridges, not placed, C-terminal decarboxylated Cys (2-thioethenamine); UniProt P43683 49-68, looked up, variant V11I L14I) | – | – | – | – | – | – | – | – | – | – | – | – | – | – | – | – | comparable to those of the parent mutants
